{"source": "patent US10377778B2", "about": "“Lead and thorium compounds” (Sciencons AS, priority 2017, dated 2019)", "key": {"[1]": {"test_system": "C4-2 PSMA-positive xenografts", "experiment": "Biodistribution of radiolabelled ligands (^224Ra/^212Pb solutions, ^177Lu) in nude mice with C4-2 xenografts", "protocol": "Each group usually consisted of three mice. […] Approximately 16 kBq of ^224Ra/^212Pb was injected in each animal, i.e., approximately 0.2 nmol of ligand per mouse. Animals were given anaesthesia and sacrificed by cervical dislocation followed by dissection and harvesting of tissue-, blood- and urine samples. The samples were weighed and counted on a gamma counter.\nThree mice in each group. […] The molar concentration was the same for both products, i.e., 12.5 nmol per MBq. Approximately 16 kBq of ^224Ra/^212Pb was injected in each animal, i.e., approximately 0.2 nmol of ligand per mouse. Animals were given anaesthesia and sacrificed by cervical dislocation followed by dissection and harvesting of tissue-, blood- and urine samples. The samples were weighed and counted on a gamma counter.\nMethods: Tumor and kidney uptake of ^212Pb-labeled p-SCN-Bn-TCMC-PSMA ligand 1 and ^177Lu-labeled PSMA-617 was compared at 1 hours and 4 hours after administration of the products by intravenous injection into nude mice with C4-2 xenografts as described in Example 9."}, "[2]": {"test_system": "C4-2 PSMA positive human prostate cells xenografts", "experiment": "Comparative therapy experiment in nude mice with C4-2 xenografts", "format": "in vivo", "conditions": "52 MBq ^177Lu-PSMA-617 or 320 kBq ^212Pb-ligand 1", "protocol": "Male nude mice were inoculated in the flanks with C4-2 PSMA positive human prostate cells and 2 weeks later when tumors were 5-7 mm in diameters. Groups of 8 animals each received saline, 52 MBq of ^177Lu-PSMA-617 or 320 kBq of ^212Pb-p-SCN-Bn-TCMC-PSMA ligand 1. Animals were sacrificed when tumor size reached 20 mm due to animal welfare requirements. […] For ^212Pb the effective half-life was assumed to be 10.6 h, 10% of injected dose per gram decays in tumor and 100% of radiation in a tumor is absorbed in the tumor, 100% retention of ^212Pb and daughters in the tumors and 8 MeV radiation energy per decay. The tumor dosimetry for the injected activities gave on average 35.9 Gy to tumors for ^177Lu-PSMA-617 and 2.06 Gy to tumors for ^212Pb-p-SCN-Bn-TCMC-PSMA ligand 1 groups respectively."}, "PC3 PIP model": {"test_system": "PC3 PIP model", "conditions": "mouse xenografts, model used by other researchers; cited from earlier work"}, "C4-2 cells": {"test_system": "C4-2 cells", "experiment": "Prostate cancer cell binding of ^212Pb-labeled ligands", "design": "species or system human", "conditions": "labeled with ^212Pb", "protocol": "The cell binding fractions measured by adding about 1 ng of radioligand to 0.2 ml of C4-2 cells (5×10^7 cells per ml) in a 5 ml test tube and incubate for 1 h before measuring applied activity, wash cells 3 times with 0.5 ml 0.5% bovine serum albumin in DPBS and thereafter recount the washed cell pellet. […] Nonspecific binding was measured by blocking the cells with excess 10 μg/ml of unlabelled ligand before adding radioligand."}, "[3]": {"experiment": "Stability testing of ^212Pb-labeled ligands in vitro (TLC radiochemical purity in PBS and FBS)", "format": "physicochemical", "conditions": "37° C.", "protocol": "Thin layer chromatography (TLC) was performed using chromatography strips (model #150-772, Biodex Medical Systems Inc, Shirley, N.Y., USA). A formulation buffer (FB) consisting of 7.5% human serum albumin and 5 mM EDTA in DPBS and adjusted to approximately pH 7 with NaOH was mixed with the antibody conjugates in ratio 2:1 for at least 5 minutes before application to the strips to determine free radionuclide. A small beaker with about 0.5 ml of 0.9% NaCl was used to place strips with a sample spot in. To the strip was typically added 1-4 μl of sample at approximately 10% above the bottom of the strip. After the solvent front had moved to about 20% from the top of the strip, the strip was cut in half and each half was placed in a 5 ml test tube for counting. In this system radiolabeled ligand stays at the bottom half while radionuclide complexed with EDTA migrates to the upper half. It was verified that free cations of both ^212Pb and ^177Lu would complex with EDTA and moved to the top.\nTLC analyses were performed at 1 h, 4 h, 24 h and 48 h of incubation. […]"}}, "data": [{"smiles": "O=C([O-])CN1CCN(CC(=O)[O-])CCN(CC(=O)NCC2CCC(C(=O)N[C@@H](Cc3ccc4ccccc4c3)C(=O)NCCCC[C@H](NC(=O)N[C@@H](CCC(=O)O)C(=O)O)C(=O)O)CC2)CCN(CC(=O)[O-])CC1.[177Lu+3]", "note": "(some centres unmarked) [^177Lu-PSMA-617, reference compound]", "values": [{"measurement": "Average tumor-to-kidney ratio", "setting": "[1]; 1-hour point after administration", "value": 0.17}, {"measurement": "Tumor-to-kidney ratio", "setting": "[1]; 4-hour timepoint", "value": 0.8}, {"measurement": "Kidney uptake (average)", "setting": "[1]; 4 hours after i.v. injection", "value": 17.4, "unit": "% ID/g"}, {"measurement": "Tumor uptake (average)", "setting": "[1]; 4 hours after i.v. injection", "value": 13.6, "unit": "% ID/g"}, {"measurement": "Typical PSMA-ligand uptake of the xenograft model used", "setting": "[1]; mouse xenografts, tumor model with intermediary level of uptake", "value": "10-15 % ID/g"}, {"measurement": "Survival at day 30 after treatment", "setting": "[2]; groups of 8, saline group 0%", "value": 12.5, "unit": "%"}, {"measurement": "Median survival", "setting": "[2]; saline group 15 days", "value": 20, "unit": "days"}, {"measurement": "Typical uptake in PC3 PIP model", "setting": "PC3 PIP model", "value": "30-40 % ID/g"}]}, {"smiles": "NC(=O)CN1CCN(CC(N)=O)CCN(CC(N)=O)C(Cc2ccc(NC(=S)NC[C@H]3CC[C@H](C(=O)N[C@@H](Cc4ccc5ccccc5c4)C(=O)NCCCC[C@H](NC(=O)N[C@@H](CCC(=O)O)C(=O)O)C(=O)O)CC3)cc2)CN(CC(N)=O)CC1", "note": "(stereo partly drawn) [p-SCN-Bn-TCMC-PSMA ligand 1, (((1S)-1-carboxy-5-((2S)-3-(naphthalen-2-yl)-2-((1r,4S)-4-((3-(4-((1,4,7,10-tetrakis(2-amino-2-oxoethyl)-1,4,7,10-tetraazacyclododecan-2-yl)methyl)phenyl)thioureido)methyl)cyclohexane-1-carboxamido)propanamido)pentyl)carbamoyl)-L-glutamic acid; trifloroacetic acid (1:4)]", "values": [{"measurement": "Difference in cell-binding versus radiolabelled PSMA-617", "setting": "C4-2 cells", "value": "No significant difference"}]}, {"smiles": "O=C(O)CCC(NC(=O)NC(CCCCNC(=O)C(Cc1ccc2ccccc2c1)NC(=O)C1CCC(CNC(=O)CN2CCN(CC(=O)O)CCN(CC(=O)O)CCN(CC(=O)O)CC2)CC1)C(=O)O)C(=O)O.[212Pb+2]", "note": "(centres unmarked) [^212Pb-PSMA-617, reference compound]", "values": [{"measurement": "Radiochemical purity", "setting": "[3]; FBS, 1 h since start of incubation, in ^224Ra/^212Pb solution", "value": 92.13, "unit": "%"}, {"measurement": "Radiochemical purity", "setting": "[3]; FBS, 4 h", "value": 94.37, "unit": "%"}, {"measurement": "Radiochemical purity", "setting": "[3]; FBS, 24 h", "value": 94.54, "unit": "%"}, {"measurement": "Radiochemical purity", "setting": "[3]; FBS, 48 h", "value": 95.65, "unit": "%"}, {"measurement": "Radiochemical purity", "setting": "[3]; PBS, 1 h since start of incubation, in ^224Ra/^212Pb solution", "value": 91.62, "unit": "%"}, {"measurement": "Radiochemical purity", "setting": "[3]; PBS, 4 h", "value": 94.33, "unit": "%"}, {"measurement": "Radiochemical purity", "setting": "[3]; PBS, 24 h", "value": 93.26, "unit": "%"}, {"measurement": "Radiochemical purity", "setting": "[3]; PBS, 48 h", "value": 93.17, "unit": "%"}]}]}
